From patent US20090192135A1, “Human Niemann Pick C1-Like 1 Gene (NPC1L1) Polymorphisms and Methods of Use Thereof” (SCHERING CORPORATION, priority 2005, published 2009)

Molecular target: T1, NPC1L1 (Homo sapiens, UniProt Q9UHC9)
T1 construct: from tissue; host or cells: small intestine of hypercholesterolemic patients (in vivo, clinical trial)
T1 sequence (Q9UHC9 22-1332 isoform Q9UHC9-2 limits assumed): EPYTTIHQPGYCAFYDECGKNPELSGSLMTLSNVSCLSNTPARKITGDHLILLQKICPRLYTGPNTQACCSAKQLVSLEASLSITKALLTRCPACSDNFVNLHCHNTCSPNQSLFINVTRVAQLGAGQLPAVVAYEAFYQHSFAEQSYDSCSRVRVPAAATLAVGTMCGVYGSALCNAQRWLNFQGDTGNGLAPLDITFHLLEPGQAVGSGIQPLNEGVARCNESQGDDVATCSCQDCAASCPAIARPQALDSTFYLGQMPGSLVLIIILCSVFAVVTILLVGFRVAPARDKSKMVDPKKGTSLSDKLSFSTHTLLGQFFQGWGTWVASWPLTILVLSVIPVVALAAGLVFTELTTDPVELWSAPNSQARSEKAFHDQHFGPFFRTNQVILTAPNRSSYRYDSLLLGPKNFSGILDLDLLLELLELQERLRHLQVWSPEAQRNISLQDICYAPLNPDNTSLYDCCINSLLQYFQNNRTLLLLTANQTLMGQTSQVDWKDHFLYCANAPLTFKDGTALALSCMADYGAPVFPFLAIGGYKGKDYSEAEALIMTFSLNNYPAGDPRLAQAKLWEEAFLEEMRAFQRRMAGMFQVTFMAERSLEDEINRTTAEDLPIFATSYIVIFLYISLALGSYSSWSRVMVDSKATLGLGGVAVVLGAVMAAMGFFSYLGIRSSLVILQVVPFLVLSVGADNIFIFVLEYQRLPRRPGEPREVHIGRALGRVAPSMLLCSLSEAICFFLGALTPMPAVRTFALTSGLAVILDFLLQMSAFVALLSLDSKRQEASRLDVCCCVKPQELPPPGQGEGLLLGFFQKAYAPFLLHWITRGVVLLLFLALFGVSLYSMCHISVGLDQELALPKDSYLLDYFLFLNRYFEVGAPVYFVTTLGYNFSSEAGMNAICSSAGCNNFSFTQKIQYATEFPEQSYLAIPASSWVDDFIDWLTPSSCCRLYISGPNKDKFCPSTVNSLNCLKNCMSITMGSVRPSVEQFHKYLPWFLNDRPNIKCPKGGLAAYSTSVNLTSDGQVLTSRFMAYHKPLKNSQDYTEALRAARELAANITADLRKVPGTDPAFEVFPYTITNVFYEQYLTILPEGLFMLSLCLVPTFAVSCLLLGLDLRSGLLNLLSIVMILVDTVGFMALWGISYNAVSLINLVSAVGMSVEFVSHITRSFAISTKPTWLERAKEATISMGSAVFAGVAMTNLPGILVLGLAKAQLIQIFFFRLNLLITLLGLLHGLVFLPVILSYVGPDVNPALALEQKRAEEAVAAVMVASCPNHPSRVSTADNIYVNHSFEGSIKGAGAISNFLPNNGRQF
Test: EASE trial: LDL-C response to six weeks of ezetimibe 10 mg/day added to stable statin therapy, analysed by NPC1L1 genotype/haplotype
Assay type: in vivo
Conditions: for Least-Squares (adjusted) Mean (n,/Stderr), percent change in LDL-C: Extreme responders N = 239; for Odds Ratio, extreme responder association with SNP: g.-18C > A; for Adjusted Least Squares Mean, LDL-C response: extreme responder data set
Experimental: Genotyping assays were developed for a number of novel and known common variants with minor allele frequencies greater than 4% that were identified in Example 1. Genetic association analysis was performed with these SNPs in a clinical trial cohort (EASE), described below, to assess whether DNA sequence variants in NPC1L1 are associated with changes in the levels of a variety of plasma cholesterol components in hypercholesterolemia patients in response to pharmacotherapy with ezetimibe and statins as compared to patients treated with a statin and placebo.
To study whether variations in NPC1L1 were associated with response to ezetimibe added to statin therapy, a study population was derived from the Ezetimibe Add-On to Statin for Effectiveness (EASE) Trial (Pearson et al., (2005) Mayo Clinic Proceedings, In Press). The EASE trial was a community-based, randomized, double-blind, placebo controlled study to evaluate the effects of six weeks of ezetimibe, 10 mg/day, added on to a stable regimen of statin therapy, on lipid biomarkers in hypercholesterolemic patients whose LDL-C levels exceeded the National Cholesterol Education Program (NCEP) Adult Treatment Panel (ATP) m guidelines for their coronary heart disease (CHD) risk category. At enrollment, patients taking a stable dose of statin (any dose, any brand) and following a NCEP Step 1 diet or similar cholesterol-lowering diet for at least six weeks prior to entry into the study were randomized to either the ezetimibe (n=2020, 2009 received the treatment) or placebo (n=1010, 1009 received the treatment) arm. From the ezetimibe group, 1208 patients provided consent for genomic analysis and were included in this study. A series of clinical measures corresponding to various cardiovascular risk factors were measured from samples obtained from all trial participants and are summarized by Pearson et al., supra.
Twenty one SNPs from Table 4 (Example 1) were converted to valid genotyping assays, thirteen of which had allele frequencies greater than 2% in all EASE sub-populations. TaqMan Allelic Discrimination assays (Livak, (1999) Genet. Anal. 14:143-49) were performed using Primer Express software and the Assay-by-Design service offered by Applied Biosystems (Foster City, Calif.). […] All probe/primer sets were designed to function using universal reaction and cycling conditions.
The twenty one selected SNPs were genotyped in 1,208 individuals participating in the ezetimibe+statin treatment arm of the EASE trial. A series of clinical measures corresponding to various cardiovascular risk factors were taken on all trial participants (Tables 4a-d). Thirteen selected SNPs genotyped in the EASE cohort were confirmed as having common allele frequencies in this cohort, i.e., an allele frequency of greater than 2% in all EASE sub-populations. […] This could reflect the increased power in the larger EASE cohort to make such detections (see Table 5).
The mean (SD) for total plasma cholesterol, HDL cholesterol (HDL-C), and LDL cholesterol (LDL-C) was 211.0 (34.9), 48.6 (11.5), and 129.1 (30.0) mg/dL, respectively (Pearson et al., supra). […] The distribution of these measurements was similar in the subjects enrolled in this genetic study (Pearson et al., supra). […] No significant associations were found between these response predictive variables and any of the tagging SNPs.
Genetic association analysis was carried out in the EASE cohort with LDL-C response to ezetimibe treatment considered as the primary outcome variable. Individual SNPs, haplotypes, and haplotype combinations were the principal explanatory variables used in the analyses. General linear models were used to estimate the effects of genotypes, haplotypes, and diplotypes on the LDL-C response phenotype. Baseline LDL-C levels, sex, age, and race were investigated to determine if they gave rise to significant effects. Baseline LDL-C levels associated with significant effects in all models and were therefore included in all analyses. […]

SMILES: O=C1[C@H](CC[C@H](O)c2ccc(F)cc2)[C@@H](c2ccc(O)cc2)N1c1ccc(F)cc1 [ezetimibe, 1-(4-fluorophenyl)-3(R)-[3-(4-fluorophenyl)-3(S)-hydroxypropyl]-4(S)-(4-hydroxyphenyl)-2-azetidinone]
- Least-Squares (adjusted) Mean (n,/Stderr), percent change in LDL-C (g.1679C > G C/C): C/C: −17.49 (143/2.71) %
- Least-Squares (adjusted) Mean (n,/Stderr), percent change in LDL-C (g.1679C > G C/G): C/G: −25.16 (85/3.51) %
- Least-Squares (adjusted) Mean (n,/Stderr), percent change in LDL-C (g.1679C > G G/G): G/G: −40.93 (11/9.76) %
- Odds Ratio, extreme responder association with SNP (baseline LDL-C as covariate table, extreme responders N = 239, CI (1.59, 5.44)): Odds Ratio = 2.94-
- Least-Squares (adjusted) Mean, percent change in LDL-C (baseline LDL-C as covariate, extreme responders N = 239, g.-18C > A C/C): C/C: −17.8%
- Least-Squares (adjusted Mean), percent change from baseline LDL-C (baseline LDL-C as covariate, g.-18C > A A/A): −26.5%
- Least-Squares (adjusted Mean), percent change from baseline LDL-C (baseline LDL-C as covariate, g.-18C > A C/A): −27.9%
- Least-Squares (adjusted Mean), percent change from baseline LDL-C (baseline LDL-C as covariate, g.-18C > A C/C): −24.2%
- Least-Squares (adjusted Mean), percent change from baseline LDL-C (baseline LDL-C as covariate, g.-133A > G A/A): −25.9%
- Least-Squares (adjusted Mean), percent change from baseline LDL-C (baseline LDL-C as covariate, g.-133A > G A/G): −24.8%
- Least-Squares (adjusted Mean), percent change from baseline LDL-C (baseline LDL-C as covariate, g.-133A > G G/G): −21.9%
- Least-Squares (adjusted Mean), percent change from baseline LDL-C (baseline LDL-C as covariate, g.1679C > G C/C): −24.5%
- Least-Squares (adjusted Mean), percent change from baseline LDL-C (baseline LDL-C as covariate, g.1679C > G C/G): −26%
- Least-Squares (adjusted Mean), percent change from baseline LDL-C (baseline LDL-C as covariate, g.1679C > G G/G): −27.9%
- Least-Squares (adjusted Mean), percent change from baseline LDL-C (baseline LDL-C as covariate, g.19224G > A A/A): −28.6%
- Least-Squares (adjusted Mean), percent change from baseline LDL-C (baseline LDL-C as covariate, g.19224G > A G/A): −25.8%
- Least-Squares (adjusted Mean), percent change from baseline LDL-C (baseline LDL-C as covariate, g.19224G > A G/G): −25%
- Least-Squares (adjusted Mean), percent change from baseline LDL-C (baseline LDL-C as covariate, g.19259T > C C/C): −26.2%
- Least-Squares (adjusted Mean), percent change from baseline LDL-C (baseline LDL-C as covariate, g.19259T > C T/C): −25.2%
- Least-Squares (adjusted Mean), percent change from baseline LDL-C (baseline LDL-C as covariate, g.19259T > C T/T): −25%
- Least-Squares (adjusted Mean), percent change from baseline LDL-C (baseline LDL-C as covariate, g.28650A > G A/A): −24.3%
- Least-Squares (adjusted Mean), percent change from baseline LDL-C (baseline LDL-C as covariate, g.28650A > G A/G): −26.6%
- Least-Squares (adjusted Mean), percent change from baseline LDL-C (baseline LDL-C as covariate, g.28650A > G G/G): −28%
- additional decrease in absolute LDL-C levels (corresponding to a 15% relative increase in LDL-C reductions): ~5 mg/dL
- Adjusted Least Squares Mean, LDL-C response (diplotype A-A-C / A-C-C): −38.20%
- Adjusted Least Squares Mean, LDL-C response (diplotype A-A-G / A-C-C): −34.80%
- Adjusted Least Squares Mean, LDL-C response (diplotype A-A-G / A-C-G): −40.29%
- Adjusted Least Squares Mean, LDL-C response (diplotype A-A-G / G-C-C): −29.06%
- Adjusted Least Squares Mean, LDL-C response (diplotype A-C-C / A-C-C): −21.78%
- Adjusted Least Squares Mean, LDL-C response (diplotype A-C-C / A-C-G): −4.60%
- Adjusted Least Squares Mean, LDL-C response (diplotype A-C-C / G-C-C): −14.60%
- Adjusted Least Squares Mean, LDL-C response (diplotype A-C-G / A-C-G): −41.46%
- Adjusted Least Squares Mean, LDL-C response (diplotype A-C-G / G-C-C): −24.20%
- Adjusted Least Squares Mean, LDL-C response (diplotype G-C-C / G-C-C): 3.93%
- Adjusted Least Squares Mean, LDL-C response (diplotype G-C-C / G-C-G): −66.96%
- Adjusted Least Squares Mean (stderr), LDL-C response (extreme responders, 3-SNP haplotype A-A-G, 0 copies (count 181)): −17.32 (2.38) %
- Adjusted Least Squares Mean (stderr), LDL-C response (extreme responders, 3-SNP haplotype A-A-G, 1 copy (count 58)): −33.69 (4.21) %
- Adjusted Least Squares Mean (stderr), LDL-C response (extreme responders, 3-SNP haplotype G-C-C, 0 copies (count 139)): −24.51 (2.75) %
- Adjusted Least Squares Mean (stderr), LDL-C response (extreme responders, 3-SNP haplotype G-C-C, 1 copy (count 92)): −18.62 (3.38) %
- Adjusted Least Squares Mean (stderr), LDL-C response (extreme responders, 3-SNP haplotype G-C-C, 2 copies (count 8)): 3.93 (11.45) %
- mean LDL-C percent response (extreme responders, g.−18C>A heterozygotes): 33.98%
- increase in efficacy / increased reduction in LDL-C (extreme responders, g.−18C>A heterozygotes vs homozygous common allele): 100%
- mean LDL-C percent response (extreme responders, homozygous for the common allele of g.−18C>A (176/239)): 16.8%
- Odds Ratio, extreme responder association with SNP (extreme responders N = 239, 95% CI 1.59, 5.44): Odds ratio** = 2.94-
- increased LDL-C response / greater reduction in LDL-C (g.−18C>A minor allele carriers compared to homozygous major allele, EASE cohort): 15%
